Data from patent publication US20190298722A1, “USE OF AN INHIBITOR OF THE DE NOVO SYNTHESIS OF PURINES, IN THE TREATMENT OF ADENYLOSUCCINATE LYASE DEFICIENCY” (ASSISTANCE PUBLIQUE-HOPITAUX DE PARIS, priority 2016, published 2019).

Tests used:
Format in all cases: in vivo, human
[1] = test system: patients with ADSL deficiency; test: Conners scale (parents and teachers) during allopurinol treatment
Method: (§1) Clinical characterization of the patients was carried out before starting treatment (T1) in accordance with the ICD 10 classification, using standardized tools: • A semi-structured interview by means of the Autism Diagnostic Interview (ADI-R): this is a semi-structured interview intended to classify symptoms reported by parents in the domain of communication, social interaction, restricted and stereotyped behaviours or sensory issues. Scores are established for the current period and, if necessary, for the period when the difficulties were most serious, between the ages of 4 and 5 years. A score is established for each of the three domains based on responses provided by the parents and the judgement of the interviewer. Scores above the thresholds in the 3 domains support a diagnosis of autism, and in one or two domains support a diagnosis of a pervasive developmental disorder. Scores below the thresholds in the 3 domains make it possible to rule out diagnosis of an autism spectrum disorder if the ADI-R results converge with the clinical assessment of the child. • A semi-structured interview using the Vineland 2 scale: this is a semi-structured interview which makes it possible to assess the adaptive skills of the child in the domains of communication, daily life, social skills and motor skills. From the description of their child's daily living skills, equivalent developmental ages and standardized scores are calculated, making it possible to describe the developmental and adaptive profile of the child. • A developmental assessment using the Psychoeducational Profile (PEP 3): this is a direct assessment of the skills of the child in several domains of their development, particularly suited to children who display a developmental disability. Six domains of development are assessed: verbal and preverbal cognition (VPC), expressive language (EL), receptive language (RL), gross motor skills (GM), fine motor skills (FM) and visual-motor imitation (VMI). The results are expressed in terms of equivalent developmental age and emerging score, when the exercises are partially completed. The number of emerging skills, or the difference between the actual ages and the emerging scores, are evidence of the development potential of the children. • The Conners scale: this is an assessment scale intended to quantify the symptoms of inattentiveness, agitation, impulsiveness, anxiety, somatization, behavioural difficulties and learning difficulties. There are several versions of the questionnaire, one for parents, the other for teachers or professionals. The scoring makes it possible to obtain an overall standardized score, considered to be significant when it is greater than 1.5.
(§2) Clinical re-assessments were carried out 6 months and one year after treatment with allopurinol and compared to the first assessment in the absence of treatment with allopurinol. They comprised: • At 6 months: scoring of the Vineland and Conners scales • At 12 months: scoring of the Vineland and Conners scales and completion of PEP-3.
Clinical progress at 200 mg of allopurinol was measured for each child based on the Conner and Vineland scale scores before treatment (T1), at 6 months (T2) and at 12 months of treatment (T3) with regard to behaviour and function.

[2] = test system: patients with ADSL deficiency; test: Urinary assay of SAICAr and S-Adenosine by HPLC-MS/MS in patients treated with allopurinol; conditions: for urinary SAICAr: three children, allopurinol 200 mg/d
Method: SAICAr and S-Ado metabolites in urine were assayed using HPLC-DAD and HPLC coupled with tandem mass spectrometry (HPLC-MS/MS) according to the techniques recently described (Ceballos-Picot et al. 2015; Zikanova et al. 2014).
The patients received allopurinol daily by the oral route (200 mg/d).

[3] = test system: patients with ADSL deficiency; test: Psychoeducational Profile (PEP3) developmental assessment during allopurinol treatment
Method: as §1, §2
Developmental progress was measured by means of developmental ages on the PEP3 scale before treatment (T1) and after a year of treatment (T3).

[4] = Patient 1, T3 (12 months), T1 2.2
[5] = patient P1, T2 (6 months) vs T1
[6] = patient P1, T3 (12 months) vs T1
[7] = patient P2, T2 (6 months) vs T1
[8] = patient P2, T3 (12 months) vs T1
[9] = patient P3, T2 (6 months) vs T1
[10] = patient P3, T3 (12 months) vs T1
[11] = Patient 1, T3 (12 months), T1 1.7
[12] = Patient 2, T3 (12 months), T1 2.3
[13] = Patient 3, T3 (12 months), T1 1.4

Structure (SMILES): O=c1ncnc2[nH][nH]cc1-2 [allopurinol, 1,2-dihydro-4H-pyrazolo[3,4-d]pyrimidin-4-one]
- overall clinical outcome ([1]; 3 patients during treatment with allopurinol, more significant in the youngest patient (P3)): clinical improvement
- Conners v-score, scale completed by the parents ([1]; 3 patients, T1, T2, T3): reduction in the v-score
- scores on the Conners scale (parents and teachers) ([1]; 3 patients, during treatment): reduction
- Conners score, Teachers ([1]; Patient 1, T2 (6 months), T1 2.2, significant when >1.5): 1.5
- Conners score, Parents ([1]; Patient 1, T2 (6 months), T1 2.3): 1.6
- Conners score, Teachers [1, 4]: 1
- Conners score, Parents ([1]; Patient 1, T3 (12 months), T1 2.3): 1.8
- Conners score, Parents ([1]; Patient 2, T2 (6 months), T1 1): 0.8
- Conners score, Teachers ([1]; Patient 2, T2 (6 months), T1 2): 1.5
- Conners score, Parents ([1]; Patient 2, T3 (12 months), T1 1): 0.5
- Conners score, Teachers ([1]; Patient 2, T3 (12 months), T1 2): 1.4
- Conners score, Parents ([1]; Patient 3, T2 (6 months), T1 1.7): 1.2
- Conners score, Teachers ([1]; Patient 3, T2 (6 months), T1 1.9): 1.8
- Conners score, Parents ([1]; Patient 3, T3 (12 months), T1 1.7): 1
- Conners score, Teachers ([1]; Patient 3, T3 (12 months), T1 1.9): 1
- hyperactivity reported by the parents and teachers ([1]; three children, allopurinol 200 mg/d): reduction in hyperactivity
- behavioural disorders ([1]; three children, allopurinol 200 mg/d, after 6 and 12 months): substantial improvement
- behavioural disorders assessed using the Conners and Vineland scales ([1]; three children, allopurinol 200 mg/d, after 6 months): substantial improvement
- SAICAr, urine ([2]; patient P1, 6 months (T2) of allopurinol 200 mg/d oral, T1 37.7): 32.9 μmol/mmol creat
- S-Adenosine, urine ([2]; patient P1, 6 months (T2) of allopurinol 200 mg/d oral, before treatment (T1) 55.4): 51.6 μmol/mmol creat
- SAICAr, urine ([2]; patient P1, 12 months (T3) of allopurinol 200 mg/d oral, T1 37.7): 19.4 μmol/mmol creat
- S-Adenosine, urine ([2]; patient P1, 12 months (T3) of allopurinol 200 mg/d oral, T1 55.4): 36.4 μmol/mmol creat
- % variation S-Adenosine [2, 5]: −6.9%
- % variation SAICAr [2, 5]: −12.7%
- S-Ado/SAICAr ratio, urine ([2]; patient P1, T2 (6 months), T1 1.47): 1.57
- % variation S-Adenosine [2, 6]: −34.3%
- % variation SAICAr [2, 6]: −48.6%
- S-Ado/SAICAr ratio, urine ([2]; patient P1, T3 (12 months), T1 1.47): 1.88
- SAICAr, urine ([2]; patient P2, 6 months (T2) of allopurinol 200 mg/d oral, T1 95.4): 57.9 μmol/mmol creat
- S-Adenosine, urine ([2]; patient P2, 6 months (T2) of allopurinol 200 mg/d oral, T1 116.3): 79.3 μmol/mmol creat
- SAICAr, urine ([2]; patient P2, 12 months (T3) of allopurinol 200 mg/d oral, T1 95.4): 46.8 μmol/mmol creat
- S-Adenosine, urine ([2]; patient P2, 12 months (T3) of allopurinol 200 mg/d oral, T1 116.3): 63.7 μmol/mmol creat
- % variation S-Adenosine [2, 7]: −31.8%
- % variation SAICAr [2, 7]: −39.3%
- S-Ado/SAICAr ratio, urine ([2]; patient P2, T2 (6 months), T1 1.22): 1.37
- % variation S-Adenosine [2, 8]: −45.2%
- % variation SAICAr [2, 8]: −51.0%
- S-Ado/SAICAr ratio, urine ([2]; patient P2, T3 (12 months), T1 1.22): 1.36
- S-Adenosine, urine ([2]; patient P3, 6 months (T2) of allopurinol 200 mg/d oral, T1 148.6): 113.3 μmol/mmol creat
- SAICAr, urine ([2]; patient P3, 6 months (T2) of allopurinol 200 mg/d oral, T1 167.9): 96.3 μmol/mmol creat
- S-Adenosine, urine ([2]; patient P3, 12 months (T3) of allopurinol 200 mg/d oral, T1 148.6): 98.2 μmol/mmol creat
- SAICAr, urine ([2]; patient P3, 12 months (T3) of allopurinol 200 mg/d oral, T1 167.9): 72.9 μmol/mmol creat
- % variation S-Adenosine [2, 9]: −23.8%
- % variation SAICAr [2, 9]: −42.7%
- S-Ado/SAICAr ratio, urine ([2]; patient P3, T2 (6 months), T1 0.89): 1.18
- % variation S-Adenosine [2, 10]: −33.9%
- % variation SAICAr [2, 10]: −56.6%
- S-Ado/SAICAr ratio, urine ([2]; patient P3, T3 (12 months), T1 0.89): 1.35
- urinary SAICAr ([2]; after 6 and 12 months of treatment): significant reduction
- urinary SAICAr ([2]; after 6 months): significant reduction
- equivalent developmental ages ([3]; 3 patients, during treatment, rate remains slow with respect to chronological age): progression
- PEP3 developmental age, EL (expressive language) [3, 11]: 1.8
- PEP3 developmental age, RL (receptive language) [3, 11]: 2.3
- PEP3 developmental age, GM [3, 4]: 2.8
- PEP3 developmental age, FM ([3]; Patient 1, T3 (12 months), T1 2.5): 2.8
- PEP3 developmental age, VPC (verbal and preverbal cognition) ([3]; Patient 1, T3 (12 months), T1 2.6, figures read as years.months per Table 2): 3
- PEP3 developmental age, VMI (visual-motor imitation) ([3]; Patient 1, T3 (12 months), T1 2.8): 3.3
- PEP3 developmental age, EL (expressive language) ([3]; Patient 2, T3 (12 months), T1 1.3): 1.7
- PEP3 developmental age, RL (receptive language) ([3]; Patient 2, T3 (12 months), T1 1.8): 2.7
- PEP3 developmental age, GM ([3]; Patient 2, T3 (12 months), T1 1.9): 3.3
- PEP3 developmental age, FM [3, 12]: 4.0
- PEP3 developmental age, VPC (verbal and preverbal cognition) [3, 12]: 2.3
- PEP3 developmental age, VMI (visual-motor imitation) ([3]; Patient 2, T3 (12 months), T1 6): 6.0
- PEP3 developmental age, EL (expressive language) [3, 13]: 2.3
- PEP3 developmental age, GM [3, 13]: 3.4
- PEP3 developmental age, RL (receptive language) ([3]; Patient 3, T3 (12 months), T1 1.5): 2
- PEP3 developmental age, VPC (verbal and preverbal cognition) ([3]; Patient 3, T3 (12 months), T1 1.6): 2.4
- PEP3 developmental age, FM ([3]; Patient 3, T3 (12 months), T1 2): 3.6
- PEP3 developmental age, VMI (visual-motor imitation) ([3]; Patient 3, T3 (12 months), T1 2.1): 3.3
- PEP3 developmental age, fine motor skills and receptive language ([3]; patient P2, T1 to T3): approximately a year
- PEP3 developmental age, gross motor skills ([3]; patient P2, T1 to T3): improvement of more than a year
- PEP3 developmental level, expressive language and preverbal and verbal cognition ([3]; patient P3, T1 to T3): gain of more than a year
